For 1 compound, Km results are on record in PMC3622683, “Purification, Gene Cloning, and Biochemical Characterization of a β-Glucosidase Capable of Hydrolyzing Sesaminol Triglucoside from Paenibacillus sp. KB0549” (PLoS ONE, 2013).

SMILES strings stand for the structures.

One may read the Km as the substrate concentration at which the rate is half of its maximum.

The target of the test is T1, rPSTG (recombinant PSTG, STG-hydrolyzing β-glucosidase) (Paenibacillus relictisesami, UniProt D6RVX0).
T1 construct: full-length 753 aa, 83,298 Da, no signal peptide; expressed from pDEST17 in E. coli BL21-AI, HisTrap purified (tag cleavage not mentioned); likely tetramer, 310 kDa; GH3
T1 sequence (D6RVX0 1-753): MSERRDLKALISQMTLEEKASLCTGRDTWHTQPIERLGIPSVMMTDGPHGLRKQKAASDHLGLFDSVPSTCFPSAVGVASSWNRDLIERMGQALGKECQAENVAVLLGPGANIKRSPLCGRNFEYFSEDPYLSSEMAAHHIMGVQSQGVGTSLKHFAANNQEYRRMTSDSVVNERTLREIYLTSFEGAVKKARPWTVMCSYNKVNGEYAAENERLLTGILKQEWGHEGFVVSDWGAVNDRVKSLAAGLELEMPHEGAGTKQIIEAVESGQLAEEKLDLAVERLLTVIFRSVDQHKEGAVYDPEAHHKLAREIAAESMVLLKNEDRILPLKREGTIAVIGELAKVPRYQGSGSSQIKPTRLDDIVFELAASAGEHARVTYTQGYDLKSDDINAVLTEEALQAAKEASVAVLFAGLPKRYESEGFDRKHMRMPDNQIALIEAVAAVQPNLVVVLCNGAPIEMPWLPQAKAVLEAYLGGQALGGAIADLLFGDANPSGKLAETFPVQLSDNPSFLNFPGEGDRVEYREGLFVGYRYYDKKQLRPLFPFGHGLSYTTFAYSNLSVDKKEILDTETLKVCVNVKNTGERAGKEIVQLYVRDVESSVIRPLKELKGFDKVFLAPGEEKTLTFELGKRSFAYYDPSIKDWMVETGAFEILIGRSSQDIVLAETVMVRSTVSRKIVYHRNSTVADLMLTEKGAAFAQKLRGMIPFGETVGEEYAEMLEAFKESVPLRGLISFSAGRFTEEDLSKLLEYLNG
In words: p-nitrophenol release, absorbance at […] nm. As to conditions: pH 7.0, 37°C, potassium phosphate. In kind it is biochemical.

Consider `C[C@H]1O[C@@H](Oc2ccc([N+](=O)[O-])cc2)[C@H](O)[C@@H](O)[C@H]1O` [pNP-β-D-fucopyranoside], for which the Km is greater than 10 mM.
